Experimental findings from patent US7705025B2, “Histamine H3 receptor agents, preparation and therapeutic uses” (Eli Lilly and Company, priority 2004, dated 2010) are described below.

This assay deals with T1, human histamine 3 receptor (Homo sapiens, UniProt Q9Y5N1).
T1 construct: expressed in transfected cells; membranes
Description: H3R binding assay (competitive inhibition SPA, [3H] α methylhistamine). To be noted: membranes of HEK293 clone H3R8. From the text: The compounds of the present invention can readily be evaluated by using a competitive inhibition Scintillation Proximity Assay (SPA) based on a H3R binding assay using [3H] α methylhistamine as ligand. Stable cell lines, including but not limited to HEK can be transfected with cDNA coding for H3R to prepare membranes used for the binding assay. The technique is illustrated below (Preparation of Histamine Receptor Subtype Membranes) for the histamine receptor subtypes.
cDNA for the human histamine 1 receptor (H1R) was cloned into a mammalian expression vector containing the CMV promoter (pcDNA3.1(+), Invitogen) and transfected into HEK293 cells using the FuGENE Tranfection Reagent (Roche Diagnostics Corporation). Transfected cells were selected using G418 (500 μ/mL). Colonies that survived selection were grown and tested for histamine binding to cells grown in 96-well dishes using a scintillation proximity assay (SPA) based radioligand binding assay. Briefly, cells, representing individual selected clones, were grown as confluent monolayers in 96-well dishes (Costar Clear Bottom Plates, #3632) by seeding wells with 25,000 cells and growing for 48 hours (37° C., 5% CO2). […] Plates were counted in a Wallac Trilux 1450 Microbeta scintillation counter. […]
cDNA for the human histamine 3 receptor was cloned and expressed as described in (A. Preparation H1R membranes), above. […]

T1 sequence (Q9Y5N1 whole entry): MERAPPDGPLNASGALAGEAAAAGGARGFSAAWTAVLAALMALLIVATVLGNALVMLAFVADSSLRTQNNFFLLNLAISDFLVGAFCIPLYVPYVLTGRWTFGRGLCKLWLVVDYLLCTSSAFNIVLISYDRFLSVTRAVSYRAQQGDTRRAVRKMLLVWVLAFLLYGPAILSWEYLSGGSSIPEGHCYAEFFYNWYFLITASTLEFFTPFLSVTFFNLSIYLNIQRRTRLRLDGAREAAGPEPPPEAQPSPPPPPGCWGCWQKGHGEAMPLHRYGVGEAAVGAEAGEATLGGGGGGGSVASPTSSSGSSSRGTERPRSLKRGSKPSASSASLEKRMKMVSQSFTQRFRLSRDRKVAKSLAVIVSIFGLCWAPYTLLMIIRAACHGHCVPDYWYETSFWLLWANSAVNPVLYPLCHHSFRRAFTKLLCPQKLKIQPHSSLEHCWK

For orientation: Ki means the equilibrium dissociation constant of an inhibitor or competing ligand from its target. Higher therefore signals weaker binding. On to `O=C(c1ccc(-c2cccs2)nc1)N1CCC[C@H]1CN1CCCC1`, for which the Ki was 13.8 nM.

As to `O=C(c1ccc(-c2nc(-c3cccnc3)cs2)cc1)N1CCC[C@H]1CN1CCCC1`, the affinity corresponds to a Ki of 3.1 nM.
